Laboratory results taken from patent US20190247449A1, “COMPOSITIONS COMPRISING A NON-PATHOGENIC BACTERIA AND METHODS FOR […] AND ANIMAL HOSTS FROM FUNGAL, BACTERIAL AND VIRAL DISEASES” (priority 2016, published 2019).

Assays:
Type in all cases: cell-based
[1] = tested on: TNF-α production; assay: TNF-α determination by ELISA in activated macrophages; conditions: RAW 264.7 macrophages activated with LPS and IFN-γ, agents added one hour before, 24 hours
Experimental: (§1) RAW 264.7 macrophages were grown in flat-bottomed flasks using a standard growth medium (DMEM supplemented with 5% FBS, antibiotics and glutamine. The cells were maintained in accordance with standard procedures well known in the art. After the cells reached confluence, they were removed from the flasks using mechanical means and then concentrated by centrifuging and resuspended in a small volume of fresh culture medium. The cell concentration was adjusted with growth medium in order that about 75,000 cells could be added to each well of a 96-well plate. A combination of 25 µg/mL LPS and 10 U/ml IFN-γ DMEM, was used for activation of the macrophages. The various test agents were added to the wells one hour prior to activation. The cells were then incubated for a further 24 hours, prior to assaying the inflammatory mediator production and cell viability.
A sandwich ELISA was used to determine TNF-α concentration. The primary antibody was used at a concentration of […] in PBS. Serial dilutions of TNF-α standard from 0 to 1000 pg/mL in diluent (0.05% Tween-20, 0.1% BSA in PBS) were used as internal standard. TNF-α was detected with a biotinylated second antibody and an avidin peroxidase conjugate with TMB as detection reagent. The color development was monitored at 655 nm, taking readings after every 5 minutes. After 25 minutes, the reaction was stopped using 0.5 M sulphuric acid and the absorbance was measured at 450 nm.

[2] = tested on: NO production; assay: Nitric oxide production by Griess assay in activated macrophages
Experimental: as §1
The production of NO by the macrophages subjected to the various treatments was assayed using the Griess reagent (equal volumes of 1% sulphanilamide and 0.1% napthyethylene-diamine in 5% HCl). 70 μL of supernatant from each test well was transferred to a fresh 96-well plate and mixed with 70 μL of Griess reagent and the violet color produced was measured at 540 nm.

[3] = tested on: RAW 264.7 macrophages; assay: Cell viability, Alamar Blue assay; conditions: % of untreated control cells
Experimental: as §1
The Alamar Blue assay of viability was performed by adding 100 μL of a 10% Alamar Blue solution to each well and incubating at 37° C. for 1-2 hr. Fluorescence was measured (excitation at 545 nm and emission at 595 nm) and expressed as a percentage of the values in untreated control cells.

[4] = at the IC50 for inhibition of NO
[5] = at the IC50 for inhibition of TNF-α

Compound	IC50 ([1]; Mus musculus, RAW264.7, read-out: IC50 for the inhibition of TNF-α production)	IC50 ([2]; Mus musculus, RAW264.7, read-out: IC50 for the inhibition of NO production)	Cell viability (% of cell survival) [3, 4]	Cell viability (% of cell survival) [3, 5]	IC50 for the inhibition of TNF-α production [1]	IC50 for the inhibition of NO production ([2]; RAW 264.7 macrophages activated with LPS and IFN-γ, agents added one hour before, 24 hours)
C=C[C@](C)(O)CC[C@@H]1[C@@]2(C)CCCC(C)(C)[C@@H]2CC[C@@]1(C)O [Sclareol]	80 µg/mL	40 µg/mL	96.20 ± 2.1 % of cell survival	95.30 ± 2.2 % of cell survival	–	–
Naringin	–	–	90.10 ± 4.2 % of cell survival	91.50 ± 5.2 % of cell survival	90 µg/mL	40 µg/mL
Steviol glycoside	–	–	98.20 ± 4.2 % of cell survival	99.54 ± 4.1 % of cell survival	80 µg/mL	–
